Where “and” joins values, the source holds several entries; their conditions need not be identical. Equal values may be shown once.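 48-hour exposure; five concentrations; linearly interpolated endpoints. GI50 is the concentration that inhibits growth by half. At the TGI there is no net growth.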
How the values were obtained:
Test in all cases: NCI anticancer screen, dose series, 48 h; in the data active means GI50 below about 0.43 µM; inactive means the rest
786-0 renal = system: 786-0 renal
A498 renal = system: A498 renal
A549 NSCLC = system: A549 NSCLC
ACHN renal = system: ACHN renal
BT-549 breast = system: BT-549 breast
CAKI-1 renal = system: CAKI-1 renal
CCRF-CEM leukemia = system: CCRF-CEM leukemia
COLO 205 colon = system: COLO 205 colon
DU-145 prostate = system: DU-145 prostate
EKVX NSCLC = system: EKVX NSCLC
HCC-2998 colon = system: HCC-2998 colon
HCT-116 colon = system: HCT-116 colon
HCT-15 colon = system: HCT-15 colon
HL-60(TB) leukemia = system: HL-60(TB) leukemia
HOP-62 NSCLC = system: HOP-62 NSCLC
HOP-92 NSCLC = system: HOP-92 NSCLC
HS 578T breast = system: HS 578T breast
HT29 colon = system: HT29 colon
IGROV1 ovarian = system: IGROV1 ovarian
K-562 leukemia = system: K-562 leukemia
KM12 colon = system: KM12 colon
LOX IMVI melanoma = system: LOX IMVI melanoma
M14 melanoma = system: M14 melanoma
MALME-3M melanoma = system: MALME-3M melanoma
MCF7 breast = system: MCF7 breast
MDA-MB-231 breast = system: MDA-MB-231 breast
MDA-MB-435 = system: MDA-MB-435
MOLT-4 leukemia = system: MOLT-4 leukemia
NCI-H226 lung = system: NCI-H226 lung
NCI-H23 lung = system: NCI-H23 lung
NCI-H460 lung = system: NCI-H460 lung
NCI-H522 lung = system: NCI-H522 lung
NCI/ADR-RES ovarian = system: NCI/ADR-RES ovarian
OVCAR-3 ovarian = system: OVCAR-3 ovarian
OVCAR-4 ovarian = system: OVCAR-4 ovarian
OVCAR-5 ovarian = system: OVCAR-5 ovarian
OVCAR-8 ovarian = system: OVCAR-8 ovarian
PC-3 prostate = system: PC-3 prostate
RPMI-8226 leukemia = system: RPMI-8226 leukemia
RXF 393 renal = system: RXF 393 renal
SF-268 CNS = system: SF-268 CNS
SF-295 CNS = system: SF-295 CNS
SF-539 CNS = system: SF-539 CNS
SK-MEL-2 melanoma = system: SK-MEL-2 melanoma
SK-MEL-28 melanoma = system: SK-MEL-28 melanoma
SK-MEL-5 melanoma = system: SK-MEL-5 melanoma
SK-OV-3 ovarian = system: SK-OV-3 ovarian
SN12C renal = system: SN12C renal
SNB-19 CNS = system: SNB-19 CNS
SNB-75 CNS = system: SNB-75 CNS
SW-620 colon = system: SW-620 colon
T-47D breast = system: T-47D breast
TK-10 renal = system: TK-10 renal
U251 CNS = system: U251 CNS
UACC-257 melanoma = system: UACC-257 melanoma
UACC-62 melanoma = system: UACC-62 melanoma
UO-31 renal = system: UO-31 renal

O=S1(=O)N(Cc2ccccc2)[C@@H](Cc2ccccc2)C2O[C@H]2[C@H](Cc2ccccc2)N1Cc1ccccc1 (stereo not given in full)
inactive: GI50 (786-0 renal) 5.12 µM | GI50 (A498 renal) > 7.5 µM | GI50 (A549 NSCLC) 3.78 µM | GI50 (ACHN renal) 5.88 µM | GI50 (BT-549 breast) 4.09 µM | GI50 (CAKI-1 renal) 0.949 µM | GI50 (CCRF-CEM leukemia) > 7.5 µM | GI50 (COLO 205 colon) > 7.5 µM | GI50 (DU-145 prostate) > 7.5 µM | GI50 (EKVX NSCLC) 6.55 µM | GI50 (HCC-2998 colon) > 7.5 µM | GI50 (HCT-116 colon) 0.844 µM | GI50 (HCT-15 colon) 3.92 µM | GI50 (HL-60(TB) leukemia) 4.75 µM | GI50 (HOP-62 NSCLC) > 7.5 µM | GI50 (HOP-92 NSCLC) > 7.5 µM | GI50 (HS 578T breast) > 7.5 µM | GI50 (HT29 colon) > 7.5 µM | GI50 (IGROV1 ovarian) 5.06 µM | GI50 (K-562 leukemia) 3.34 µM | GI50 (KM12 colon) 7.19 µM | GI50 (LOX IMVI melanoma) 5.38 µM | GI50 (M14 melanoma) > 7.5 µM | GI50 (MALME-3M melanoma) > 7.5 µM | GI50 (MCF7 breast) 4.27 µM | GI50 (MDA-MB-231 breast) > 7.5 µM | GI50 (MDA-MB-435) > 7.5 µM | GI50 (MOLT-4 leukemia) 4.12 µM | GI50 (NCI-H226 lung) > 7.5 µM | GI50 (NCI-H23 lung) 3.47 µM | GI50 (NCI-H460 lung) 2.53 µM | GI50 (NCI-H522 lung) 1.83 µM | GI50 (NCI/ADR-RES ovarian) 5.23 µM | GI50 (OVCAR-3 ovarian) 4.03 µM | GI50 (OVCAR-4 ovarian) > 7.5 µM | GI50 (OVCAR-5 ovarian) > 7.5 µM | GI50 (OVCAR-8 ovarian) > 7.5 µM | GI50 (PC-3 prostate) 3.06 µM | GI50 (RPMI-8226 leukemia) 4.92 µM | GI50 (RXF 393 renal) > 7.5 µM | GI50 (SF-268 CNS) 6.08 µM | GI50 (SF-295 CNS) 1.8 µM | GI50 (SF-539 CNS) > 7.5 µM | GI50 (SK-MEL-2 melanoma) > 7.5 µM | GI50 (SK-MEL-28 melanoma) > 7.5 µM | GI50 (SK-MEL-5 melanoma) 1.79 µM | GI50 (SK-OV-3 ovarian) > 7.5 µM | GI50 (SN12C renal) > 7.5 µM | GI50 (SNB-19 CNS) > 7.5 µM | GI50 (SNB-75 CNS) > 7.5 µM | GI50 (SW-620 colon) > 7.5 µM | GI50 (T-47D breast) 6.81 µM | GI50 (TK-10 renal) 3.9 µM | GI50 (U251 CNS) 1.84 µM | GI50 (UACC-257 melanoma) 2.89 µM | GI50 (UACC-62 melanoma) 6.75 µM | GI50 (UO-31 renal) > 7.5 µM
> 7.5 µM: TGI (786-0 renal) | TGI (A498 renal) | TGI (A549 NSCLC) | TGI (ACHN renal) | TGI (BT-549 breast) | TGI (CAKI-1 renal) | TGI (CCRF-CEM leukemia) | TGI (COLO 205 colon) | TGI (DU-145 prostate) | TGI (EKVX NSCLC) | TGI (HCC-2998 colon) | TGI (HCT-116 colon) | TGI (HCT-15 colon) | TGI (HL-60(TB) leukemia) | TGI (HOP-62 NSCLC) | TGI (HOP-92 NSCLC) | TGI (HS 578T breast) | TGI (HT29 colon) | TGI (IGROV1 ovarian) | TGI (K-562 leukemia) | TGI (KM12 colon) | TGI (LOX IMVI melanoma) | TGI (M14 melanoma) | TGI (MALME-3M melanoma) | TGI (MCF7 breast) | TGI (MDA-MB-231 breast) | TGI (MDA-MB-435) | TGI (MOLT-4 leukemia) | TGI (NCI-H226 lung) | TGI (NCI-H23 lung) | TGI (NCI-H460 lung) | TGI (NCI-H522 lung) | TGI (NCI/ADR-RES ovarian) | TGI (OVCAR-3 ovarian) | TGI (OVCAR-4 ovarian) | TGI (OVCAR-5 ovarian) | TGI (OVCAR-8 ovarian) | TGI (PC-3 prostate) | TGI (RPMI-8226 leukemia) | TGI (RXF 393 renal) | TGI (SF-268 CNS) | TGI (SF-295 CNS) | TGI (SF-539 CNS) | TGI (SK-MEL-2 melanoma) | TGI (SK-MEL-28 melanoma) | TGI (SK-MEL-5 melanoma) | TGI (SK-OV-3 ovarian) | TGI (SN12C renal) | TGI (SNB-19 CNS) | TGI (SNB-75 CNS) | TGI (SW-620 colon) | TGI (T-47D breast) | TGI (TK-10 renal) | TGI (U251 CNS) | TGI (UACC-257 melanoma) | TGI (UACC-62 melanoma) | TGI (UO-31 renal)

CC(=O)NC1C(OCc2ccccc2)OC(CO)C(O)C1OCC(=O)NC(C)C(=O)NC(CCC(=O)NCCCCCNc1c2ccccc2nc2cccc([N+](=O)[O-])c12)C(N)=O (stereo not given)
0.00615 µM: TGI (OVCAR-4 ovarian)
0.017 µM: TGI (OVCAR-8 ovarian)
0.00142 µM: TGI (A549 NSCLC)
1.54 µM: TGI (TK-10 renal)
0.0265 µM: TGI (SF-295 CNS)
active: GI50 (IGROV1 ovarian) 0.0124 µM | GI50 (TK-10 renal) < 0.0001 µM
0.00124 µM: TGI (SK-MEL-5 melanoma)
0.0455 µM: TGI (HL-60(TB) leukemia)
< 0.0001 µM: TGI (A498 renal) | TGI (ACHN renal) | TGI (BT-549 breast) | TGI (CAKI-1 renal) | TGI (COLO 205 colon) | TGI (HCC-2998 colon) | TGI (HCT-116 colon) | TGI (HCT-15 colon) | TGI (HT29 colon) | TGI (K-562 leukemia) | TGI (KM12 colon) | TGI (M14 melanoma) | TGI (MALME-3M melanoma) | TGI (MCF7 breast) | TGI (MDA-MB-231 breast) | TGI (MDA-MB-435) | TGI (PC-3 prostate) | TGI (RPMI-8226 leukemia) | TGI (SF-268 CNS) | TGI (SK-MEL-2 melanoma) | TGI (SK-MEL-28 melanoma) | TGI (SN12C renal) | TGI (U251 CNS)
0.00332 µM: TGI (UACC-257 melanoma)
0.000315 µM: TGI (SW-620 colon)
0.00254 µM: TGI (NCI-H226 lung)
0.00164 µM: TGI (SNB-75 CNS)
0.00311 µM: TGI (HOP-92 NSCLC)
0.0147 µM and 0.014 µM: TGI (LOX IMVI melanoma)
0.00116 µM: TGI (SF-539 CNS)
0.0045 µM: TGI (NCI-H522 lung)
0.000206 µM: TGI (786-0 renal)
